Among the data in ChEMBL document CHEMBL1151218, “A new ursane triterpene from Monochaetum vulcanicum that inhibits DNA polymerase beta lyase” (J Nat Prod, 2004) are IC50 values, retold here.

pIC50: −log10 of the molar value.

The assay addresses DNA polymerase beta (Homo sapiens, UniProt P06746). Description: Inhibition of DNA polymerase beta lyase activity.

The pIC50 is the negative decadic logarithm of the IC50, by convention in mol/L. On to `C[C@H]1[C@H](C)CC[C@]2(C(=O)O)CC[C@]3(C)C(=CC[C@@H]4[C@@]5(C)CC[C@H](OC(=O)/C=C/c6ccc(O)cc6)C(C)(C)[C@@H]5CC[C@]43C)[C@H]12`, for which the negative-log IC50 (pIC50) is less than 4.30.
Compound `CC(=O)O[C@H]1[C@H](O)C[C@]2(C)[C@H]3CC=C4[C@@H]5[C@@H](C)[C@H](C)CC[C@]5(C(=O)O)CC[C@@]4(C)[C@]3(C)CC[C@H]2C1(C)C` gave a pIC50 of 4.67.
For the compound `C[C@H]1[C@H](C)CC[C@]2(C(=O)O)CC[C@]3(C)C(=CC[C@@H]4[C@@]5(C)C[C@@H](O)[C@H](O)C(C)(C)[C@@H]5CC[C@]43C)[C@H]12` [COROSOLIC ACID], the pIC50 was 4.90.
Consider `CC[C@H](CC[C@@H](C)[C@H]1CC[C@H]2[C@@H]3CC=C4C[C@@H](O[C@@H]5O[C@H](CO)[C@@H](O)[C@H](O)[C@H]5O)CC[C@]4(C)[C@H]3CC[C@]12C)C(C)C` [SITOGLUSIDE], for which the pIC50 is 4.58.
The compound `C[C@H]1[C@H](C)CC[C@]2(C(=O)O)CC[C@]3(C)C(=CC[C@@H]4[C@@]5(C)CC[C@H](O)C(C)(C)[C@@H]5CC[C@]43C)[C@H]12` [URSOLIC ACID] had a pIC50 of 4.73.
